# From patent publication US20230167073A1 (Teijin Pharma Limited, priority 2020, published 2023)
# Molecular target: T1, Human TRPC6 (Homo sapiens, UniProt Q9Y210)
# T1 construct: expressed in transfected cells
# T1 sequence (Q9Y210 1-931): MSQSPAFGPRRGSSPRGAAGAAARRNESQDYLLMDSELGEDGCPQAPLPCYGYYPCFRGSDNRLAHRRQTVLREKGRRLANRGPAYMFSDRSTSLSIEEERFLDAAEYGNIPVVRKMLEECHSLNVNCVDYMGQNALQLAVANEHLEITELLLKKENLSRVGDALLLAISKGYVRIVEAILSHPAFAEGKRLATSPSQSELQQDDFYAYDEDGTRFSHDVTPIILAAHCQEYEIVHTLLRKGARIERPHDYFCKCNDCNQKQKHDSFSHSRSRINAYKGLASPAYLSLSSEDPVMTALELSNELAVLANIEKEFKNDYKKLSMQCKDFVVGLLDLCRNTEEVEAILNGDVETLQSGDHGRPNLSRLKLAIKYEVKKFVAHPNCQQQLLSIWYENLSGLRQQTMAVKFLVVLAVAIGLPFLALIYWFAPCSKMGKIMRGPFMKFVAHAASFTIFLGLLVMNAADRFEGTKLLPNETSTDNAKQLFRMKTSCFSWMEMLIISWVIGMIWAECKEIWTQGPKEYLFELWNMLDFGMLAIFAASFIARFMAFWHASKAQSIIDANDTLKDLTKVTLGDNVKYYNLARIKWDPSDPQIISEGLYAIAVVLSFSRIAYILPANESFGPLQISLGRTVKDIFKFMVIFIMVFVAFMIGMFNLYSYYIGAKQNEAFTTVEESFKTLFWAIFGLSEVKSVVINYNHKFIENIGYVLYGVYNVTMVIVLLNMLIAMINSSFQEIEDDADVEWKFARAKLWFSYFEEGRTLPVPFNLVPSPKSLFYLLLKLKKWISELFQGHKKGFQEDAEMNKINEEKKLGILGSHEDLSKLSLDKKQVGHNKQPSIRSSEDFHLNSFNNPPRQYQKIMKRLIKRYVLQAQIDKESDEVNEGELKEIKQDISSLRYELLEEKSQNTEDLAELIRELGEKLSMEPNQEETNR
# Test: Evaluation of TRPC6 channel inhibitory activity (1), FLIPR Calcium 5 Assay Kit, OAG stimulation (Compound Nos. 1-1293)
# Format: cell-based
# Conditions: Human TRPC6 stably-expressing cells, OAG 30 μM, FLIPR Calcium 5 Assay Kit; read-out: Inhibitory activity (pIC50 class) (converted)
# Summary of the method: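 TRPC6 (human) stable cells, 24 h culture; Ca5 no-wash dye + probenecid 30 min; cpd 20 min; OAG 30 μM final; ΔF (pre-cpd min to post-OAG max); 0%/100% = no cpd / no cpd + no OAG; 4PL → pIC50, binned +/++/+++.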
row,Compound,IC50 [nM]
1,"N#Cc1ccc(-c2ncc(CCN)cn2)c(Cn2cnc(-c3ccccc3)c2)c1 [compound 1135, 4-[5-(2-aminoethyl)pyrimidin-2-yl]-3-[(4-phenylimidazol-1-yl)methyl]benzonitrile]",< 10
2,"N#Cc1ccc(-c2ccc([C@@H](O)CN)cn2)c(Cn2cncc2-c2ccccc2)c1 [compound 1136, 4-[5-[(1R)-2-amino-1-hydroxyethyl]pyridin-2-yl]-3-[(5-phenylimidazol-1-yl)methyl]benzonitrile]",> 1000
3,"Cc1nc(-c2ccccc2)cn1Cc1cc(C#N)ccc1-c1ncc(CCN)cn1 [compound 1137, 4-[5-(2-aminoethyl)pyrimidin-2-yl]-3-[(2-methyl-4-phenylimidazol-1-yl)methyl]benzonitrile]",< 10
4,"N#Cc1ccc(-c2ccc([C@@H](O)CN)cn2)c(Cn2cnc(-c3ccccc3)c2)c1 [compound 1138, 4-[5-[(1R)-2-amino-1-hydroxyethyl]pyridin-2-yl]-3-[(4-phenylimidazol-1-yl)methyl]benzonitrile]",10 to 1000
5,"Cc1nc(-c2ccccc2)cn1Cc1cc(C#N)ccc1-c1ccc(C(O)CN)cn1 (stereo not drawn) [compound 1139, 4-[5-(2-amino-1-hydroxyethyl)pyridin-2-yl]-3-[(2-methyl-4-phenylimidazol-1-yl)methyl]benzonitrile]",10 to 1000
6,"COC(C)c1cn(Cc2cc(C#N)ccc2-c2ccc(CCN)cn2)c(C)n1 (stereo not drawn) [compound 1140, 4-[5-(2-aminoethyl)pyridin-2-yl]-3-[[4-(1-methoxyethyl)-2-methylimidazol-1-yl]methyl]benzonitrile]",10 to 1000
7,"COC(C)c1cn(Cc2cc(C#N)ccc2-c2ncc(CCN)cn2)c(C)n1 (stereo not drawn) [compound 1141, 4-[5-(2-aminoethyl)pyrimidin-2-yl]-3-[[4-(1-methoxyethyl)-2-methylimidazol-1-yl]methyl]benzonitrile]",10 to 1000
8,"CCC(OC)c1cn(Cc2cc(C#N)ccc2-c2ncc(CCN)cn2)c(C)n1 (stereo not drawn) [compound 1142, 4-[5-(2-aminoethyl)pyrimidin-2-yl]-3-[[4-(1-methoxypropyl)-2-methylimidazol-1-yl]methyl]benzonitrile]",10 to 1000
9,"N#Cc1ccc(-c2ccc(CCN)cn2)c(Cn2cnc(-c3ccccc3F)c2)c1 [compound 1143, 4-[5-(2-aminoethyl)pyridin-2-yl]-3-[[4-(2-fluorophenyl)imidazol-1-yl]methyl]benzonitrile]",< 10
10,"N#Cc1ccc(-c2ccc(CCN)cn2)c(Cn2cnc(-c3ccccc3Cl)c2)c1 [compound 1144, 4-[5-(2-aminoethyl)pyridin-2-yl]-3-[[4-(2-chlorophenyl)imidazol-1-yl]methyl]benzonitrile]",< 10
11,"Cc1ccccc1-c1cn(Cc2cc(C#N)ccc2-c2ccc(CCN)cn2)cn1 [compound 1145, 4-[5-(2-aminoethyl)pyridin-2-yl]-3-[[4-(2-methylphenyl)imidazol-1-yl]methyl]benzonitrile]",< 10
12,"Cc1ccc(-c2cn(Cc3cc(C#N)ccc3-c3ccc(CCN)cn3)cn2)cc1 [compound 1146, 4-[5-(2-aminoethyl)pyridin-2-yl]-3-[[4-(4-methylphenyl)imidazol-1-yl]methyl]benzonitrile]",10 to 1000
13,"N#Cc1ccc(-c2ccc(CCN)cn2)c(Cn2cnc(-c3ccc(F)cc3)c2)c1 [compound 1147, 4-[5-(2-aminoethyl)pyridin-2-yl]-3-[[4-(4-fluorophenyl)imidazol-1-yl]methyl]benzonitrile]",< 10
14,"Cc1cccc(-c2cn(Cc3cc(C#N)ccc3-c3ccc(CCN)cn3)cn2)c1 [compound 1148, 4-[5-(2-aminoethyl)pyridin-2-yl]-3-[[4-(3-methylphenyl)imidazol-1-yl]methyl]benzonitrile]",< 10
15,"N#Cc1ccc(-c2ccc(CCN)cn2)c(Cn2cnc(-c3cccc(F)c3)c2)c1 [compound 1149, 4-[5-(2-aminoethyl)pyridin-2-yl]-3-[[4-(3-fluorophenyl)imidazol-1-yl]methyl]benzonitrile]",< 10

# Next, values leading:
row,IC50 [nM],Compound
1,< 10,"Cc1nc(-c2ccccc2)cn1Cc1cc(C#N)ccc1-c1ccc(CCN)cn1 [compound 1150, 4-[5-(2-aminoethyl)pyridin-2-yl]-3-[(2-methyl-4-phenylimidazol-1-yl)methyl]benzonitrile]"
2,< 10,"Cc1ccccc1-c1cn(Cc2cc(C#N)ccc2-c2ccc(CCN)cn2)c(C)n1 [compound 1151, 4-[5-(2-aminoethyl)pyridin-2-yl]-3-[[2-methyl-4-(2-methylphenyl)imidazol-1-yl]methyl]benzonitrile]"
3,< 10,"Cc1nc(-c2ccccc2F)cn1Cc1cc(C#N)ccc1-c1ccc(CCN)cn1 [compound 1152, 4-[5-(2-aminoethyl)pyridin-2-yl]-3-[[4-(2-fluorophenyl)-2-methylimidazol-1-yl]methyl]benzonitrile]"
4,< 10,"Cc1ccc(-c2cn(Cc3cc(C#N)ccc3-c3ccc(CCN)cn3)c(C)n2)cc1 [compound 1153, 4-[5-(2-aminoethyl)pyridin-2-yl]-3-[[2-methyl-4-(4-methylphenyl)imidazol-1-yl]methyl]benzonitrile]"
5,< 10,"Cc1nc(-c2ccc(F)cc2)cn1Cc1cc(C#N)ccc1-c1ccc(CCN)cn1 [compound 1154, 4-[5-(2-aminoethyl)pyridin-2-yl]-3-[[4-(4-fluorophenyl)-2-methylimidazol-1-yl]methyl]benzonitrile]"
6,< 10,"Cc1cccc(-c2cn(Cc3cc(C#N)ccc3-c3ccc(CCN)cn3)c(C)n2)c1 [compound 1155, 4-[5-(2-aminoethyl)pyridin-2-yl]-3-[[2-methyl-4-(3-methylphenyl)imidazol-1-yl]methyl]benzonitrile]"
7,< 10,"Cc1nc(-c2cccc(F)c2)cn1Cc1cc(C#N)ccc1-c1ccc(CCN)cn1 [compound 1156, 4-[5-(2-aminoethyl)pyridin-2-yl]-3-[[4-(3-fluorophenyl)-2-methylimidazol-1-yl]methyl]benzonitrile]"
8,10 to 1000,"Cc1nc(-c2ccccn2)cn1Cc1cc(C#N)ccc1-c1ccc(CCN)cn1 [compound 1157, 4-[5-(2-aminoethyl)pyridin-2-yl]-3-[(2-methyl-4-pyridin-2-ylimidazol-1-yl)methyl]benzonitrile]"
9,> 1000,"Cc1cc(-c2ccccc2)nn1Cc1cc(C#N)ccc1-c1ccc(CCN)cn1 [compound 1158, 4-[5-(2-aminoethyl)pyridin-2-yl]-3-[(5-methyl-3-phenylpyrazol-1-yl)methyl]benzonitrile]"
10,10 to 1000,"Cc1cc(C(C)(C)C)nn1Cc1cc(C#N)ccc1-c1ccc(CCN)cn1 [compound 1159, 4-[5-(2-aminoethyl)pyridin-2-yl]-3-[(3-tert-butyl-5-methylpyrazol-1-yl)methyl]benzonitrile]"
11,> 1000,"N#Cc1ccc(-c2ccc(CCN)cn2)c(Cn2cnc(-c3ccccn3)c2)c1 [compound 1160, 4-[5-(2-aminoethyl)pyridin-2-yl]-3-[(4-pyridin-2-ylimidazol-1-yl)methyl]benzonitrile]"
12,10 to 1000,"Cc1nc(-c2cccc(F)c2)cn1Cc1cc(C#N)ccc1-c1ccc([C@H](O)CN)cn1 [compound 1161, 4-[5-[(1S)-2-amino-1-hydroxyethyl]pyridin-2-yl]-3-[[4-(3-fluorophenyl)-2-methylimidazol-1-yl]methyl]benzonitrile]"
13,10 to 1000,"Cc1nc(-c2cccc(F)c2)cn1Cc1cc(C#N)ccc1-c1ncc([C@H](O)CN)cn1 [compound 1162, 4-[5-[(1S)-2-amino-1-hydroxyethyl]pyrimidin-2-yl]-3-[[4-(3-fluorophenyl)-2-methylimidazol-1-yl]methyl]benzonitrile]"
14,10 to 1000,"Cc1nc(C2CCOCC2)cn1Cc1cc(C#N)ccc1-c1ccc(CN)cn1 [compound 1163, 4-[5-(aminomethyl)pyridin-2-yl]-3-[[2-methyl-4-(oxan-4-yl)imidazol-1-yl]methyl]benzonitrile]"
15,10 to 1000,"Cc1nc(C2CCOCC2)cn1Cc1cc(C#N)ccc1-c1ncc(CN)cn1 [compound 1164, 4-[5-(aminomethyl)pyrimidin-2-yl]-3-[[2-methyl-4-(oxan-4-yl)imidazol-1-yl]methyl]benzonitrile]"
16,> 1000,Cc1nc(C2CCOCC2)cn1Cc1cc(C#N)ccc1-c1ccc([C@H](O)CN)cn1 [compound 1165]
17,> 1000,Cc1nc(C2CCOCC2)cn1Cc1cc(C#N)ccc1-c1ncc([C@H](O)CN)cn1 [compound 1166]
18,< 10,"N#Cc1ccc(-c2ncc(CCN)cn2)c(Cn2cc(-c3ccccc3)nn2)c1 [compound 1167, 4-[5-(2-aminoethyl)pyrimidin-2-yl]-3-[(4-phenyltriazol-1-yl)methyl]benzonitrile]"
